Laboratory results reported in the supplement of paper PMC10307832.

Tests used:
Assay in all cases: relative viability (nuclei count vs DMSO), 5 days (fraction); higher = more cells survive
[1] = compound: CN1CCN(CC1)C2=CC(=C(C=C2)NC3=NC(=C(S3)C(=O)C4=C(C=CC=C4Cl)Cl)N)OC [XMD14-99] + O=C(c1cc(Cc2n[nH]c(=O)c3ccccc23)ccc1F)N1CCN(C(=O)C2CC2)CC1 [Olaparib] (partner 8 µM)
Outline: (§1)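 For relative viability, nuclei counts in treated wells were divided by those in vehicle wells. Lung cancer cell lines had been pin-tool dosed in 1536-well plates the day after seeding and cultured for 5 days, then fixed and stained in one step (final 0.05% Triton X-100, 1% formaldehyde, 1 ug/ml Hoechst) and imaged at 4×. Doses were one drug alone or a fixed anchor-drug dose plus five library-drug doses (not always all listed) in √10 steps, and values are duplicate-plate medians.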

[2] = compound: CN1CCN(CC1)C2=CC(=C(C=C2)NC3=NC(=C(S3)C(=O)C4=C(C=CC=C4Cl)Cl)N)OC [XMD14-99] + Nc1nc2[nH]cc(CCc3ccc(C(=O)N[C@@H](CCC(=O)O)C(=O)O)cc3)c2c(=O)[nH]1 [Pemetrexed] (partner 0.2 µM)
Outline: as §1

[3] = compound: N[C@@H]1CCCN(c2c(/C=C3\SC(=O)NC3=O)cccc2-c2ccccc2)C1 [AZD1208] + O=C(CCCCCCC(=O)Nc1ccccc1)NO [Vorinostat] (partner 1 µM)
Outline: as §1

[4] = compound: N[C@@H]1CCCN(c2c(/C=C3\SC(=O)NC3=O)cccc2-c2ccccc2)C1 [AZD1208] + CS(=O)(=O)N1CCN(Cc2cc3nc(-c4cccc5[nH]ncc45)nc(N4CCOCC4)c3s2)CC1 [Pictilisib] (partner 1 µM)
Outline: as §1

Cell Line	relative viability ([1]; first compound 0.08 µM)	relative viability ([1]; first compound 0.8 µM)	relative viability ([1]; first compound 2.53 µM)	relative viability ([1]; first compound 8 µM)	relative viability ([2]; first compound 0.08 µM)	relative viability ([2]; first compound 0.8 µM)	relative viability ([2]; first compound 2.53 µM)	relative viability ([2]; first compound 8 µM)	relative viability ([3]; first compound 0.08 µM)	relative viability ([3]; first compound 0.253 µM)	relative viability ([3]; first compound 0.8 µM)	relative viability ([3]; first compound 2.53 µM)	relative viability ([3]; first compound 8 µM)	relative viability ([4]; first compound 0.08 µM)	relative viability ([4]; first compound 0.253 µM)	relative viability ([4]; first compound 0.8 µM)	relative viability ([4]; first compound 2.53 µM)	relative viability ([4]; first compound 8 µM)
201T	0.861	0.799	0.776	0.695	0.331	0.356	0.32	0.281	0.961	1.01	0.967	0.949	0.952	0.644	0.641	0.649	0.62	0.686
A549	0.471	0.377	0.311	0.27	–	–	–	–	–	–	–	–	–	0.409	0.423	0.303	0.283	0.358
A-427	0.793	0.628	0.67	0.501	0.952	0.946	0.892	0.645	0.873	0.913	0.836	0.906	0.828	0.673	0.664	0.597	0.74	0.533
ABC-1	0.696	1.03	0.737	0.673	–	–	–	–	1.75	1.08	0.922	0.997	1.02	0.526	0.665	0.565	0.623	0.627
BEN	0.979	1.06	0.786	0.773	0.747	0.794	0.845	0.492	0.61	0.584	0.49	0.503	0.427	0.525	0.447	0.414	0.387	0.373
CAL-12T	0.674	0.785	0.671	0.607	1.2	1.28	1.12	0.885	0.675	0.814	0.565	0.653	0.439	0.507	0.523	0.389	0.355	0.511
COR-L23	0.345	0.298	0.298	0.193	0.192	0.207	0.166	0.184	0.488	0.401	0.49	0.433	0.41	0.738	0.87	0.725	0.693	0.75
COR-L 105	0.657	0.699	0.682	0.621	1.14	0.855	0.965	0.788	1.04	0.833	0.898	0.832	0.779	0.369	0.3	0.353	0.366	0.451
Calu-6	0.524	0.529	0.502	0.472	–	–	–	–	–	–	–	–	–	0.784	1	0.851	0.829	0.739
ChaGo-K-1	0.473	0.438	0.403	0.292	0.257	0.256	0.263	0.233	0.732	0.831	0.557	0.637	0.608	0.979	0.698	0.644	0.537	0.484
EBC-1	0.771	0.635	0.646	0.382	–	–	–	–	–	–	–	–	–	0.2	0.275	0.265	0.271	0.274
EKVX	0.763	0.837	0.904	0.73	0.366	0.338	0.328	0.362	0.766	0.583	0.744	0.735	0.763	0.395	0.421	0.349	0.375	0.365
EMC-BAC-2	0.507	0.483	0.443	0.422	0.437	0.449	0.403	0.368	0.872	0.394	0.447	0.469	0.399	0.537	0.528	0.463	0.474	0.47
EPLC-272H	0.711	0.809	0.802	0.422	0.406	0.335	0.324	0.291	0.405	0.505	0.38	0.333	0.443	0.362	0.278	0.349	0.324	0.271
H3255	0.577	0.507	0.491	0.343	0.558	0.526	0.518	0.433	0.831	0.869	0.772	0.747	0.74	0.402	0.44	0.408	0.364	0.451
HARA	0.816	0.999	0.589	0.491	0.21	0.29	0.265	0.237	0.489	0.486	0.451	0.515	0.546	0.349	0.373	0.452	0.286	0.363
HCC-15	0.688	0.661	0.706	0.441	0.208	0.218	0.221	0.209	0.805	0.859	0.834	0.83	0.692	0.611	0.679	0.524	0.548	0.515
HCC-44	1.08	1.01	1.01	0.956	0.648	0.65	0.63	0.627	1.2	1.09	1.13	1.11	1.12	0.617	0.463	0.372	0.46	0.458
HCC-78	0.716	0.799	0.724	0.589	0.852	0.899	0.943	0.934	0.435	0.444	0.413	0.403	0.37	0.205	0.206	0.198	0.195	0.205
HCC-366	0.375	0.344	0.315	0.243	0.219	0.18	0.18	0.128	0.373	0.473	0.391	0.36	0.291	0.112	0.0978	0.123	0.092	0.0878
